Numbered stars: 1 amine (or outer) side, 2 acyl side, 3 side chain; on linkers, the order of the positions; unused ones are H or OH. Square brackets hold non-standard residues; d marks the D form. Peptide text beside a SMILES is read from it. X6 = CN(C)C[C@H]1C=NN([*:1])[C@H](C(=O)[*:2])C1; X5 = O=C1CC[C@@H](C(=O)[*:2])N([*:1])N1; dPiz(1,6-dehydro) = O=C(O)[C@H]1CCC=NN1; X2 = CN1CCC[C@@H](C(=O)[*:2])N1[*:1]; X1 = CN1CCC[C@H](C(=O)[*:2])N1[*:1]; X7 = O=C([C@@H]1C=CC=NN1[*:1])[*:2]; X3 = O=C([C@H]1CCCNN1[*:1])[*:2]; dNMeF = CN[C@H](Cc1ccccc1)C(=O)O

Usually Ki stands for a measure of affinity in units of concentration, obtained from inhibition or displacement. A high value points to a looser hold on the target.

Test [1] has as its target Vasopressin V1a receptor (Rattus norvegicus) (UniProt P30560). As to the kind of experiment: Binding affinity against Vasopressin receptor in rat liver.
Test [2] has the same target. The test is described as above. This is another data set of the same source.

Chain of Vasopressin V1a receptor (Rattus norvegicus) (P30560 whole entry, looked up): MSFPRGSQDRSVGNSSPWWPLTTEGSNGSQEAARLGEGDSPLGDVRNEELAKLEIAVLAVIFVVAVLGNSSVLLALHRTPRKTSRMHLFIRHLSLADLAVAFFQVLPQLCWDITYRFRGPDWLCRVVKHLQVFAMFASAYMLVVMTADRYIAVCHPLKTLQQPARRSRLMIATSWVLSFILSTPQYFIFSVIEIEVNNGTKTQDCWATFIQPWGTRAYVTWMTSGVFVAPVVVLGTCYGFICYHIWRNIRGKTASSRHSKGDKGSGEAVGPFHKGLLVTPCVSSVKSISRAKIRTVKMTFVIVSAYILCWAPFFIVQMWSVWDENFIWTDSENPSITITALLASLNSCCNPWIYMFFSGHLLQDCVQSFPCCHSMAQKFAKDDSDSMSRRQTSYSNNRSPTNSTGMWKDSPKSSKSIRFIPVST

In test [1], `CC[C@@H](C)[C@@H]1NC(=S)[C@@H](Cc2ccccc2)NC(=O)[C@@H]2CCCN2C(=O)[C@@H](Cc2ccccc2)N(C)C(=O)[C@@H]2CCC=NN2C(=O)[C@H]2CCC=NN2C1=O` gave a Ki of 0.14 µM. `CC[C@H](C)[C@H]1C(=O)N2NCCC[C@@H]2C(=O)N2NCCC[C@H]2C(=O)N(C)[C@H](Cc2ccccc2)C(=O)N2CCC[C@H]2C(=O)N[C@H](Cc2ccccc2)C(=O)N1O` had a Ki in test [2] of 2.2 µM. `CC[C@H](C)[C@@H]1NC[C@@H](Cc2ccccc2)NC(=O)[C@@H]2CCCN2C(=O)[C@@H](Cc2ccccc2)N(C)C(=O)[C@@H]2CCC=NN2C(=O)[C@H]2CCC=NN2C1=O` came in with a Ki in test [2] greater than 30 µM.

With `CC[C@H](C)[C@@H]1NC(=O)[C@@H](Cc2ccccc2)NC(=O)[C@@H]2CCCN2C(=O)[C@@H](Cc2ccccc2)N(C)C(=O)[C@@H]2CCCN(C)N2C(=O)[C@H]2CCCN(C)N2C1=O` (cyclo(I[X1][X2][dNMeF]P[dF])), the inhibitory constant (Ki) in test [2] was determined as 7.4 µM. `CC[C@H](C)[C@@H]1NC(=O)[C@@H](Cc2ccccc2)NC(=O)[C@@H]2CCCN2C(=O)[C@@H](Cc2ccccc2)N(C)C(=O)[C@@H]2CCC(=O)NN2C(=O)[C@H]2CCCNN2C1=O` (cyclo(I[X3][X5][dNMeF]P[dF])) yielded an inhibition constant (Ki) in test [1] of 3.9 µM. In the case of `CC[C@H](C)[C@@H]1NC(=O)[C@@H](Cc2ccccc2)NC(=O)[C@@H]2CCCN2C(=O)[C@@H](Cc2ccccc2)N(C)C(=O)[C@@H]2CCC(=O)NN2C(=O)[C@H]2CCC=NN2C1=O` (cyclo(I[dPiz(1,6-dehydro)][X5][dNMeF]P[dF])), the Ki in test [1] is 1.6 µM.

Molecule `CC[C@H](C)[C@@H]1NC(=O)[C@@H](Cc2ccccc2)NC(=O)[C@@H]2CCCN2C(=O)[C@@H](Cc2ccccc2)N(C)C(=O)[C@@H]2C[C@@H](CN(C)C)C=NN2C(=O)[C@H]2CCC=NN2C1=O` (cyclo(I[dPiz(1,6-dehydro)][X6][dNMeF]P[dF])) had a Ki in test [2] of 0.55 µM. This lies in the sub-micromolar range. The molecule `CC[C@H](C)[C@@H]1NC(=O)[C@@H](Cc2ccccc2)NC(=O)[C@@H]2CCCN2C(=O)[C@@H](Cc2ccccc2)N(C)C(=O)[C@@H]2C=CC=NN2C(=O)[C@H]2CCC=NN2C1=O` (cyclo(I[dPiz(1,6-dehydro)][X7][dNMeF]P[dF])) registered a Ki in test [2] of 0.39 µM.
